# Measured values from patent publication US20170266152A1, “PHARMACEUTICAL COMPOSITION, METHODS FOR TREATING AND USES THEREOF” (Boehringer Ingelheim International GmbH, priority 2016, published 2017).
# What was measured:
# [1] = Clinical studies of haemodynamic, vascular and autonomic cardiovascular effects of empagliflozin; type: in vivo
# From the text: It may be assumed that altered glucose and sodium gradients within the kidney may generate a sympathoinhibitory afferent renal nerve signal. The lack of sympathetic activation may contribute to a beneficial cardiovascular and renal profile of empagliflozin (cardiorenal axis). Based on clinical and non-clinical studies including mechanistic considerations, such as the effect of empagliflozin on human autonomic cardiovascular regulation, the use of empagliflozin in the treatment and prevention of certain diseases and conditions, in particular in chronic heart failure, acute heart failure and chronic kidney disease, is described hereinbefore and hereinafter.
# [2] = patients with type 2 diabetes mellitus and high cardiovascular risk; cited from earlier work
# [3] = Cherney et al. 2014; cited from earlier work
# [4] = crystalline form (WO 2006/117359, WO 2011/039107); cited from earlier work
# [5] = metformin on its own, in the diabetic; cited from earlier work
Structure (SMILES),reflex-mediated sympathetic activation ([1]; in contrast to increases observed with diuretics),blood pressure ([1]; treatment with empagliflozin),heart rate ([1]; treatment with empagliflozin),"rate pressure product (RPP), surrogate marker of cardiac oxygen demand ([1]; treatment with empagliflozin)",risk of hospitalization for heart failure [2],arterial stiffness [3],direct vascular effects [3],diuretic effect [3],physico-chemical stability [4],solubility [4],average improvement in the HbA1c value [5]
"OC[C@H]1O[C@@H](c2ccc(Cl)c(Cc3ccc(O[C@H]4CCOC4)cc3)c2)[C@H](O)[C@@H](O)[C@@H]1O [empagliflozin, 1-chloro-4-(β-D-glucopyranos-1-yl)-2-[4-((S)-tetrahydrofuran-3-yloxy)-benzyl]-benzene]",not being associated with clinically relevant reflex-mediated sympathetic activation,blood pressure reductions,without clinically relevant changes of the heart rate,improving rate pressure product,reduced the risk,reduced arterial stiffness,direct vascular effects,shows a diuretic effect,physico-chemically stable,good solubility properties,–
CN(C)C(=N)N=C(N)N [metformin],–,–,–,–,–,–,–,–,–,–,1.0-1.5%
